Laboratory results reported in patent US20170183306A1, “CYCLIC COMPOUNDS HAVING A 1,3 DIAMINO-FUNCTIONALITY FOR USE IN THE TREATMENT OF HIV INFECTION” (Universite Paris Descartes, priority 2014, published 2017).
Structures can show the parent of a compound that is named as a salt.

Columns and labels:
Format in all cases: cell-based
J-Lat cells = test: J-Lat cells, percentage of GFP-positive cells by cytometry; details: 24 h, compound alone
Method: The J-Lat were grown in RPMI 1640 medium (Gibco-BRL) supplemented with 10% fetal bovine serum, 50 U/ml of penicillin, […] of streptomycin at 37 uC in a humidified 95% air/5% CO2 atmosphere. The cells were plated at 5.105 cells in a 96 well-plate. TNF ? was purchased from Immunosource. SAHA (suberoylanilide hydroxamic acid), prostratin (12-deoxyphorbol-13-acetate) and vorinostat were obtained from Sigma-Aldrich. The J-Lat cells were treated for 24 h with the different compounds alone. The cells were washed twice in PBS, re-suspended in PBS containing 4% paraformaldehyde and fixed for 30 min. Cells were next washed and re-suspended in PBS. The percentage of GFP-positive cells was measured with a LSRFortessa cytometer (Becton-Dickinson) using FACSDiva Version 6.1.3 according to the manufacturer's instructions.
The results for the J-Lat cells experiments are expressed as a percentage of the living fluorescent cells. In this model, some slight increase of viral production measured by fluorescence are quantified (table 1).

HeLa-p4 cells = test: Cell viability assay (MTS) on HeLa-p4 cells; details: cell viability
Method: (§1) HeLa-p4 cells are HeLa CD4 LTR-LacZ wherein LacZ expression is induced by the trans-activating protein Tat of HIV, making possible the precise quantification of HIV-1 infectivity from a single replication cycle. HeLa-CD4 cells growing exponentially at a density of 1×10^4/mL were placed in 96-well plates and infected the following day with 1 ng of HIV p24 antigen in the presence of different concentrations of compounds. The titles for a single cycle of the viruses were determined 48 hours after infection by quantifying the beta-galactosidase activity in lysates P4 by colorimetric test (CPRG, Promega) based on the cleavage of chlorophenol red-beta-D-galactopyranoside (CPRG) by beta-galactosidase. A cell viability assay measuring the absorbance at […] using the yellow tetrazolium reagent MTS [[…]] (Promega) was carried out.
(§2) For the helap4 cells experiments, the efficacy of the compounds is determined in comparison with control cells containing wild type NL4-3 virus alone (i.e. without any added compound) and is expressed as percentage of control. Then, the viral replication was increased for several compounds at the 50 and 100 μM concentrations with an absence of cytotoxic effects at the same concentrations (MTS test) (table 1).

[1] = test system: wild type NL4-3 virus (HIV-1) in HeLa-p4 cells; test: HeLa-p4 single-cycle HIV-1 infectivity, beta-galactosidase CPRG test; details: Human immunodeficiency virus 1, NL43, HeLaP4, 48 hours after infection, control = NL4-3 virus alone; for activity at 50 µM: read-out: Hela-p4 CPRG 50 μM; for activity at 100 µM: read-out: Hela-p4 CPRG 100 μM
Method: as §1, §2

Row | SMILES | J-lat 50 μM (J-Lat cells) | Hela-p4 MTS 50 μM (HeLa-p4 cells) | Hela-p4 MTS 100 μM (HeLa-p4 cells) | Hela-p4 MTS 200 μM (HeLa-p4 cells) | activity at 50 µM [1] | activity at 100 µM [1] | activity at 200 µM [1] | J-lat 100 μM (J-Lat cells)
1 | COc1ccc2c(CN3C[C@H](NC(=O)OC(C)(C)C)C[C@H](NC(=O)OC(C)(C)C)C3)cn(C)c2c1 [ECO02-060-C, di-tert-butyl (1-((6-methoxy-1-methyl-1H-indol-3-yl)methyl)piperidine-3,5-diyl)dicarbamate] | 0.6 percentage of the living fluorescent cells | 69 | 54 | 43 | 178% | 221% | 217% | –
2 | N[C@@H]1C[C@H](N)CN(c2ccc3c(c2)OCO3)C1 [ECO01-042-C] | 0.2 percentage of the living fluorescent cells | 85 | 60 | – | 146% | 104% | – | 0.4 percentage of the living fluorescent cells
3 | Cc1ccc(CCN2C[C@H](N)C[C@H](N)C2)cc1 [ECO01-029-C, 1-(4-methylphenethyl)piperidine-3,5-diamine] | 0.1 percentage of the living fluorescent cells | 94 | 89 | – | 126% | 109% | – | 15.8 percentage of the living fluorescent cells
4 | CN(C)c1ccc(CN2C[C@H](NC(=O)OC(C)(C)C)C[C@H](NC(=O)OC(C)(C)C)C2)cc1 [ECO02-062-C] | 0.7 percentage of the living fluorescent cells | 91 | 84 | 73 | 239% | 269% | 401% | –
5 | COC(=O)[C@@H](Cc1ccccc1)N1C[C@H](N)C[C@H](N)C1 [AB-109 F3, (R)-methyl 2-((3S,5R)-3,5-diaminopiperidin-1-yl)-3-phenylpropanoate] | 0.1 percentage of the living fluorescent cells | 110 | 95 | 75 | 164% | 153% | 289% | 4.9 percentage of the living fluorescent cells
6 | COc1ccc(-c2ccc(N3C[C@H](N)C[C@H](N)C3)cc2)cc1 [ECO02-029-C, 1-(4′-methoxy-[1,1′-biphenyl]-4-yl)piperidine-3,5-diamine4-(2-((3S,5R)-3,5-diaminopiperidin-1-yl)ethyl)phenol] | 2.4 percentage of the living fluorescent cells | 25 | 25 | – | 29% | 30% | – | –
7 | N[C@@H]1C[C@H](N)CN(c2ccc(NC(=O)c3ccccc3)cc2)C1 [ECO03-002-C, N-(4-(3,5-diaminopiperidin-1-yl)phenyl)benzamide] | 0.5 percentage of the living fluorescent cells | 115 | 116 | 74 | 120% | 165% | 317% | –
8 | N[C@@H]1C[C@H](N)CN(c2ccccc2)C1 [ECO01-037-C, 1-phenylpiperidine-3,5-diamine] | 0.6 percentage of the living fluorescent cells | 97 | 106 | – | 103% | 103% | – | 0.2 percentage of the living fluorescent cells
9 | COc1ccc(CCN2C[C@H](N)C[C@H](N)C2)cc1 [ECO02-025-C, 1-(4-methoxyphenethyl)piperidine-3,5-diamine] | 0.3 percentage of the living fluorescent cells | 112 | 82 | – | 90% | 123% | – | 0.3 percentage of the living fluorescent cells
10 | N[C@@H]1C[C@H](N)CN(Cc2cccc3cnccc23)C1 [ECO02-068-C, 1-(isoquinolin-5-ylmethyl)piperidine-3,5-diamine trihydrochloride] | 0.4 percentage of the living fluorescent cells | 85 | 83 | – | 105% | 137% | – | –
11 | N[C@@H]1C[C@H](N)CN(c2cccc(C(=O)Nc3ccccc3)c2)C1 [ECO02-003-C, 3-(3,5-diaminopiperidin-1-yl)-N-phenylbenzamide] | 0.4 percentage of the living fluorescent cells | 105 | 60 | – | 140% | 118% | – | 0.5 percentage of the living fluorescent cells
12 | N[C@@H]1C[C@H](N)CN(c2ccc3[nH]ccc3c2)C1 [AB-86, (3S,5R)-1-(1H-indol-5-yl)piperidine-3,5-diamine] | 0.1 percentage of the living fluorescent cells | 81 | 74 | – | 80% | 66% | – | 2.6 percentage of the living fluorescent cells
13 | N[C@@H]1C[C@H](N)CN(CCc2ccccc2)C1 [ECO02-027-C, 1-phenethylpiperidine-3,5-diamine] | 8.7 percentage of the living fluorescent cells | 100 | 45 | – | 75% | 52% | – | 2.3 percentage of the living fluorescent cells
14 | CC(C)N1C[C@H](N)C[C@H](N)C1 [AB542, 1-isopropylpiperidine-3,5-diamine] | 0.1 percentage of the living fluorescent cells | 100 | 99 | – | 113% | 106% | – | 0.7 percentage of the living fluorescent cells
15 | COc1ccc2[nH]cc(CCN3C[C@H](N)C[C@H](N)C3)c2c1 [AB-84, (3S,5R)-1-(2-(5-methoxy-1H-indol-3-yl)ethyl)piperidine-3,5-diamine] | 0.1 percentage of the living fluorescent cells | 62 | 60 | – | 112% | 75% | – | 6.9 percentage of the living fluorescent cells
16 | N[C@@H]1C[C@H](N)CN(Cc2ccccc2)C1 [ECO02-063-C, 1-benzylpiperidine-3,5-diamine trihydrochloride] | 2.9 percentage of the living fluorescent cells | 108 | 112 | 81 | 85% | 107% | 193% | –
17 | Cc1ccccc1CCN1C[C@H](N)C[C@H](N)C1 [ECO01-028-C, 1-(2-methylphenethyl)piperidine-3,5-diamine] | 0.1 percentage of the living fluorescent cells | 91 | 94 | – | 108% | 113% | – | 0 percentage of the living fluorescent cells
18 | CC(O)c1ccc(C(=O)NC(CCCCN)C(=O)N2C[C@H](N)C[C@H](N)C2)cc1 (stereo partly shown) [AB289-1, N-(6-amino-1-(3,5-diaminopiperidin-1-yl)-1-oxohexan-2-yl)-4-(1-hydroxyethyl)benzamide] | 0 percentage of the living fluorescent cells | 103 | 100 | 74 | 157% | 236% | 294% | 0.8 percentage of the living fluorescent cells
19 | COc1cccc(CCN2C[C@H](N)C[C@H](N)C2)c1 [ECO01-026-C2, 1-(3-methoxyphenethyl)piperidine-3,5-diamine] | 3.3 percentage of the living fluorescent cells | 106 | 98 | 72 | 116% | 169% | 234% | –
